Results: patent US20090182039A1, “Choline Salt Crystal of Azulene Compound” (priority 2005, published 2009)
Blank lines part the entries; values can stand above or below the compound they belong to.

Columns and labels:
[1] = Crystal form stability (DSC analysis / X-ray powder diffraction); assay type: physicochemical; settings: behaviour on heating, drying or at room temperature
Experimental: X-ray powder diffraction and differential scanning calorimeter analysis (DSC analysis) were conducted under the following conditions. “MAC Science […]22” equipped with a copper X-ray tube was used under the conditions of a current of 40 mA, a tube voltage of […], a sampling width of 0.020°, a scanning rate of 3°/min, wavelength of 1.54056 Å, and measurement angles of diffraction range of (2θ): 3 or 5 to 40°. “TA Instrument TA 5000” was used at a temperature from room temperature to 300° C. (10° C./min) and a N2 feed rate of 50 ml/min using an aluminum sampling pan.

Storage stability test = assay type: physicochemical
Experimental: (2-hydroxyethyl)trimethylammonium-4-(azulene-2-ylmethyl)-2-β-D-glucopyranosylphenolate (46 g) was put into a polyethylene bag, and the opening of the bag was closed with a bead band. The bag was put into another polyethylene bag containing silica gel (12 g). The opening of the bag was closed with a bead band. The bag was placed in a metal can, which was tightly sealed and stored in a dark place at 40° C. and 75% RH for six months. Apart from this, (2-hydroxyethyl)trimethylammonium-4-(azulene-2-ylmethyl)-2-β-D-glucopyranosylphenolate (10 g) was put into an open brown container and stored in a dark place at 40° C. and 75% RH for six months.

[2] = target: T1, Human Na+-glucose cotransporter (human SGLT2) (Homo sapiens, UniProt P31639); assay: Inhibition of methyl-α-D-glucopyranoside intake in CHO cells stably expressing human SGLT2; assay type: cell-based; settings: stated as equivalent to the value of Example 75 of Patent Document 1
T1 construct: expressed in transfected cells; host or cells: CHO-K1
T1 sequence (P31639 1-672): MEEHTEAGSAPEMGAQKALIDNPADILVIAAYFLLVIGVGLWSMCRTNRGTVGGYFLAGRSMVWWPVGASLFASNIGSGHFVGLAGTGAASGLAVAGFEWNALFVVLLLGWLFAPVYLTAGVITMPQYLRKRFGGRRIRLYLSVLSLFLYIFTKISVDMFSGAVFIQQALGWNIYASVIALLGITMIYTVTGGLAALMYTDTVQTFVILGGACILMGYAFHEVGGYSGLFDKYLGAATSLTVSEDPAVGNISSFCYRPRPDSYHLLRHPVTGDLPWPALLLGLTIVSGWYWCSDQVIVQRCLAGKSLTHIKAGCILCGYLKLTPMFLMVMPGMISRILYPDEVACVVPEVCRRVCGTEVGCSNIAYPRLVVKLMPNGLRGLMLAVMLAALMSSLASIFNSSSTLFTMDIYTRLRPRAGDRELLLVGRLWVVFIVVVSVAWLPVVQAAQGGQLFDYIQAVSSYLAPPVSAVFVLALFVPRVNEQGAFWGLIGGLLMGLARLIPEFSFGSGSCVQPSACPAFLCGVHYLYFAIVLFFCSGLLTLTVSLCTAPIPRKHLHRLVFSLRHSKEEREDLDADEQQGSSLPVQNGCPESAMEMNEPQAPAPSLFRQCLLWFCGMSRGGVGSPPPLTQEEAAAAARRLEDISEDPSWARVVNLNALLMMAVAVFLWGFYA
Description: [Test for Confirming Effect of Inhibiting Activity of Human Na^+-Glucose Cotransporter (Human SGLT2)]
First, single-stranded cDNA was reversely transcripted from total RNA originating from human kidney (manufactured by BD Biosciences Clontech) using a Superscript II (manufactured by Invitrogen Corporation) and a random hexamer. Second, using the cDNA as a template, a DNA fragment encoding human SGLT2 (Wells R. G. et al., Am. J. Physiol., 1992, 263 (3) F459) was amplified by a PCR reaction using Pyrobest DNA polymerase (manufactured by Takara Bio Inc.) (A primer where a Hind III site and an EcoRI site were inserted into the 5′ side and the 3′ side of the DNA fragment, respectively, was used).
The amplified fragment was cloned into a pCR2.1-Topo vector using a Topo TA Cloning Kit (manufactured by Invitrogen Corporation), and the cloned vector was transfected into a competent cell of Escherichia coli JM109. Ampicillin-resistant clones were cultured in a LB medium containing ampicillin (100 mg/l). A plasmid was purified from the cultured Escherichia coli using the method of Hanahan (see Maniatis et al., “Molecular Cloning”). […]

[3] = 40° C., 75% RH, silica gel/polyethylene bags (double) in a metal can, dark place, 2 months
[4] = 40° C., 75% RH, silica gel/polyethylene bags (double) in a metal can, dark place, 4 months
[5] = 40° C., 75% RH, silica gel/polyethylene bags (double) in a metal can, dark place, 6 months
[6] = at the start of storing, 0 month
[7] = 40° C., 75% RH, brown glass container, open, dark place, 2 months
[8] = 40° C., 75% RH, brown glass container, open, dark place, 4 months
[9] = 40° C., 75% RH, brown glass container, open, dark place, 6 months

Compound: [Na+].[O-]c1ccc(Cc2cc3cccccc-3c2)cc1[C@@H]1O[C@H](CO)[C@@H](O)[C@H](O)[C@H]1O [Comparative Example 1, sodium 4-(azulen-2-ylmethyl)-2-β-D-glucopyranosylphenolate]
Stability of the crystal form [1]: change form due to dissociation of volatile components at a low temperature

Compound: [K+].[O-]c1ccc(Cc2cc3cccccc-3c2)cc1[C@@H]1O[C@H](CO)[C@@H](O)[C@H](O)[C@H]1O [Comparative Example 2, potassium 4-(azulen-2-ylmethyl)-2-β-D-glucopyranosylphenolate]
Stability of the crystal form [1]: change form due to dissociation of volatile components at a low temperature

Compound: [Li+].[O-]c1ccc(Cc2cc3cccccc-3c2)cc1[C@@H]1O[C@H](CO)[C@@H](O)[C@H](O)[C@H]1O [Comparative Example 3, lithium 4-(azulen-2-ylmethyl)-2-β-D-glucopyranosylphenolate]
Stability of the crystal form [1]: change form due to dissociation of volatile components at a low temperature

Compound: OC[C@H]1O[C@@H](c2cc(Cc3cc4cccccc-4c3)ccc2O)[C@H](O)[C@@H](O)[C@@H]1O [Comparative Example 5, (1S)-1,5-anhydro-1-[5-(azulen-2-ylmethyl)-2-hydroxyphenyl]-D-glucitol hydrate crystal-1]
Stability of the crystal form [1]: transformed into anhydride crystal-3 of azulene compound A

Compound: OC[C@H]1O[C@@H](c2cc(Cc3cc4cccccc-4c3)ccc2O)[C@H](O)[C@@H](O)[C@@H]1O [Comparative Example 7, (1S)-1,5-anhydro-1-[5-(azulen-2-ylmethyl)-2-hydroxyphenyl]-D-glucitol anhydride crystal-1]
Stability of the crystal form [1]: stable only at high temperature and cannot be isolated at room temperature

Compound: OC[C@H]1O[C@@H](c2cc(Cc3cc4cccccc-4c3)ccc2O)[C@H](O)[C@@H](O)[C@@H]1O [Comparative Example 8, (1S)-1,5-anhydro-1-[5-(azulen-2-ylmethyl)-2-hydroxyphenyl]-D-glucitol anhydride crystal-2]
Stability of the crystal form [1]: stable only at a high temperature and could not be isolated at room temperature

Analogous compounds (%) (HPCL) Maximum of each compound (Storage stability test; [3]): 0.26% | Analogous compounds (%) (HPCL) Total amount (Storage stability test; [3]): 0.66% | Quantitative analysis (%) (HPCL) (Storage stability test; [3]): 99.5% | Water content (%) (Storage stability test; [3]): 0.29% | Analogous compounds (%) (HPCL) Maximum of each compound (Storage stability test; [4]): 0.26% | Analogous compounds (%) (HPCL) Total amount (Storage stability test; [4]): 0.62% | Quantitative analysis (%) (HPCL) (Storage stability test; [4]): 99.0% | Water content (%) (Storage stability test; [4]): 0.22% | Analogous compounds (%) (HPCL) Maximum of each compound (Storage stability test; [5]): 0.27% | Analogous compounds (%) (HPCL) Total amount (Storage stability test; [5]): 0.44% | Quantitative analysis (%) (HPCL) (Storage stability test; [5]): 99.5% | Water content (%) (Storage stability test; [5]): 0.19% | Storage stability (conclusion from Table 3) (Storage stability test; 40° C., 75% RH, six months): stable compounds | Analogous compounds (%) (HPCL) Maximum of each compound (Storage stability test; [6]): 0.26% | Analogous compounds (%) (HPCL) Total amount (Storage stability test; [6]): 0.61% | Quantitative analysis (%) (HPCL) (Storage stability test; [6]): 99.0% | Water content (%) (Storage stability test; [6]): 0.39% | IC50 [2]: ~8.9 nM
Compound: OC[C@H]1O[C@@H](c2cc(Cc3cc4cccccc-4c3)ccc2O)[C@H](O)[C@@H](O)[C@@H]1O [Example 1, (2-hydroxyethyl)trimethylammonium 4-(azulen-2-ylmethyl)-2-β-D-glucopyranosylphenolate]

Analogous compounds (%) (HPCL) Maximum of each compound (Storage stability test; [7]): 0.25% | Analogous compounds (%) (HPCL) Total amount (Storage stability test; [7]): 0.58% | Quantitative analysis (%) (HPCL) (Storage stability test; [7]): 99.2% | Water content (%) (Storage stability test; [7]): 3.78% | Analogous compounds (%) (HPCL) Maximum of each compound (Storage stability test; [8]): 0.24% | Analogous compounds (%) (HPCL) Total amount (Storage stability test; [8]): 0.57% | Quantitative analysis (%) (HPCL) (Storage stability test; [8]): 99.9% | Water content (%) (Storage stability test; [8]): 3.59% | Analogous compounds (%) (HPCL) Maximum of each compound (Storage stability test; [9]): 0.24% | Analogous compounds (%) (HPCL) Total amount (Storage stability test; [9]): 0.43% | Quantitative analysis (%) (HPCL) (Storage stability test; [9]): 98.8% | Water content (%) (Storage stability test; [9]): 3.61%
Compound: OC[C@H]1O[C@@H](c2cc(Cc3cc4cccccc-4c3)ccc2O)[C@H](O)[C@@H](O)[C@@H]1O [Example 2, (2-hydroxyethyl)trimethylammonium 4-(azulen-2-ylmethyl)-2-β-D-glucopyranosylphenolate hydrate]
